27 compounds from patent US7473790B2 (Pfizer Inc., priority 2003, dated 2009) can be followed below.

The target of the test is T1, HCV polymerase (Hepatitis C virus genotype 1b, UniProt P26663).
T1 construct: 2.5 pmoles (0.15 μg) HCV polymerase protein in a final volume of 75 μL
T1 sequence (P26663 2420-3010): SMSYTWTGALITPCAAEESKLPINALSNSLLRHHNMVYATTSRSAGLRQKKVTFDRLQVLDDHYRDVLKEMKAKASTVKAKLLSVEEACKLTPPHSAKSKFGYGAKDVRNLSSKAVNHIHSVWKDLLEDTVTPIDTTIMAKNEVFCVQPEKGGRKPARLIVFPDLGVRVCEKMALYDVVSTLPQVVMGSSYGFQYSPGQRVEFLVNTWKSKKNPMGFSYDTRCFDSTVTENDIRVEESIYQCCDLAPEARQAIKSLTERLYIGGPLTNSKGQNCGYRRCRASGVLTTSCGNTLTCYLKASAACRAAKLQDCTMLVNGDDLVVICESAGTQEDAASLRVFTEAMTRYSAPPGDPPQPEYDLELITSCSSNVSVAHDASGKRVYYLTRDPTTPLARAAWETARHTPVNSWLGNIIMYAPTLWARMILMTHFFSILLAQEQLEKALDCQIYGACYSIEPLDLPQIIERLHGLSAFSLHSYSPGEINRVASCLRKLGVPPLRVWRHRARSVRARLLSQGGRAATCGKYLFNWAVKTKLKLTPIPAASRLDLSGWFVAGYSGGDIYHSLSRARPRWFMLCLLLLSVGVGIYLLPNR
In words: HCV polymerase primer/template-directed transcription assay (32P-GTP incorporation, filter binding). The format is biochemical. To be noted: recombinant HCV polymerase; 30 minutes at 30° C.; concentration giving 50% inhibition of polymerase-directed transcription; read-out: IC50. In a few lines: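 Recombinant genotype 1b polymerase (30 nM) extended biotin-dG12 primer on poly(rC)300 template with 1 μM GTP plus α-32P-GTP, pH 7.2, 10 mM MgCl2, 30 min at 30° C, 1% DMSO final. Products captured on DE filters and counted. IC50 fitted from triplicate cpm, with a tight-binding correction applied below 200 nM.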
`CCc1ccc(O)c(CCC2(C3CCCC3)CC(O)=C(Cc3nc4nc(C)cc(C)n4n3)C(=O)O2)c1` (stereo not drawn) [A(166), 6-Cyclopentyl-3-(5,7-dimethyl-[1,2,4]triazolo[1,5-a]pyrimidin-2-ylmethyl)-6-[2-(5-ethyl-2-hydroxy-phenyl)-ethyl]-4-hydroxy-5,6-dihydro-pyran-2-one]: the IC50 was 1 nM.
For the compound `CCc1ccc(O)c(CCC2(C3CCCC3)CC(=O)CC(=O)O2)c1` (stereo not drawn) [A(169), 6-Cyclopentyl-6-[2-(5-ethyl-2-hydroxy-phenyl)-ethyl]-dihydro-pyran-2,4-dione], the IC50 is 400 nM.
For `CCc1ccc(O)c(CCC2(C3CCCC3)CC(O)=C(Cc3nc4ncc(Cl)cn4n3)C(=O)O2)c1` (stereo not drawn) [A(170), 3-(6-Chloro-[1,2,4]triazolo[1,5-a]pyrimidin-2-ylmethyl)-6-cyclopentyl-6-[2-(5-ethyl-2-hydroxy-phenyl)-ethyl]-4-hydroxy-5,6-dihydro-pyran-2-one] the value was 10 nM; for `CCc1ccc(O)c(CCC2(C3CCCC3)CC(O)=C(Cc3nc4ncc(C)cn4n3)C(=O)O2)c1` (stereo not drawn) [A(173), 6-Cyclopentyl-6-[2-(5-ethyl-2-hydroxy-phenyl)-ethyl]-4-hydroxy-3-(6-methyl-[1,2,4]triazolo[1,5-a]pyrimidin-2-ylmethyl)-5,6-dihydro-pyran-2-one], 4 nM; for `CCc1ccc(O)c(CCC2(C3CCCC3)CC(O)=C(Cc3nc4ncccn4n3)C(=O)O2)c1` (stereo not drawn) [A(176), 6-Cyclopentyl-6-[2-(5-ethyl-2-hydroxy-phenyl)-ethyl]-4-hydroxy-3-[1,2,4]triazolo[1,5-a]pyrimidin-2-ylmethyl-5,6-dihydro-pyran-2-one], 6 nM.
As to `CCc1ccc(OCCOC)c(CCC2(C3CCCC3)CC(O)=C(Cc3nc4nc(C)cc(C)n4n3)C(=O)O2)c1` (stereo not drawn) [A(177), 6-Cyclopentyl-3-(5,7-dimethyl-[1,2,4]triazolo[1,5-a]pyrimidin-2-ylmethyl)-6-{2-[5-ethyl-2-(2-methoxy-ethoxy)-phenyl]-ethyl}-4-hydroxy-5,6-dihydro-pyran-2-one], the IC50 amounted to 14 nM.
For `CCc1ccc(OCCOC)c(CCC2(C3CCCC3)CC(=O)CC(=O)O2)c1` (stereo not drawn) [A(178), 6-Cyclopentyl-6-{2-[5-ethyl-2-(2-methoxy-ethoxy)-phenyl]-ethyl}-dihydro-pyran-2,4-dione] the value was 1300 nM; for `CCc1ccc(OCCOC)c(CCC2(C3CCCC3)CC(O)=C(Cc3nc4ncc(C)cn4n3)C(=O)O2)c1` (stereo not drawn) [A(179), 6-Cyclopentyl-6-{2-[5-ethyl-2-(2-methoxy-ethoxy)-phenyl]-ethyl}-4-hydroxy-3-(6-methyl-[1,2,4]triazolo[1,5-a]pyrimidin-2-ylmethyl)-5,6-dihydro-pyran-2-one], 5 nM.
For `CCc1cc(CCC2(C3CCCC3)CC(O)=C(Cc3nc4nc(C)cc(C)n4n3)C(=O)O2)c2c(c1O)CCO2` (stereo not drawn) [A(180), 6-Cyclopentyl-3-(5,7-dimethyl-[1,2,4]triazolo[1,5-a]pyrimidin-2-ylmethyl)-6-[2-(5-ethyl-4-hydroxy-2,3-dihydro-benzofuran-7-yl)-ethyl]-4-hydroxy-5,6-dihydro-pyran-2-one] the value was 10 nM; for `CCc1cc(CCC2(C3CCCC3)CC(=O)CC(=O)O2)c2c(c1O)CCO2` (stereo not drawn) [A(181), 6-Cyclopentyl-6-[2-(5-ethyl-4-hydroxy-2,3-dihydro-benzofuran-7-yl)-ethyl]-dihydro-pyran-2,4-dione], 600 nM; for `CCc1cc(CCC2(C3CCCC3)CC(O)=C(Cc3nc4ncc(C)cn4n3)C(=O)O2)c2c(c1O)CCO2` (stereo not drawn) [A(182), 6-Cyclopentyl-6-[2-(5-ethyl-4-hydroxy-2,3-dihydro-benzofuran-7-yl)-ethyl]-4-hydroxy-3-(6-methyl-[1,2,4]triazolo[1,5-a]pyrimidin-2-ylmethyl)-5,6-dihydro-pyran-2-one], 4 nM.
To `CCc1cc(CCC2(C3CCCC3)CC(O)=C(Cc3nc4nc(C)cc(C)n4n3)C(=O)O2)ccc1OCCOC` (stereo not drawn) [A(183), 6-Cyclopentyl-3-(5,7-dimethyl-[1,2,4]triazolo[1,5-a]pyrimidin-2-ylmethyl)-6-{2-[3-ethyl-4-(2-methoxy-ethoxy)-phenyl]-ethyl}-4-hydroxy-5,6-dihydro-pyran-2-one] belongs 7 nM; to `CCc1cc(CCC2(C3CCCC3)CC(=O)CC(=O)O2)ccc1OCCOC` (stereo not drawn) [A(184), 6-Cyclopentyl-6-{2-[3-ethyl-4-(2-methoxy-ethoxy)-phenyl]-ethyl}-dihydro-pyran-2,4-dione], 520 nM; to `CCc1cc(CCC2(C3CCCC3)CC(O)=C(Cc3nc4ncc(C)cn4n3)C(=O)O2)ccc1OCCOC` (stereo not drawn) [A(185), 6-Cyclopentyl-6-{2-[3-ethyl-4-(2-methoxy-ethoxy)-phenyl]-ethyl}-4-hydroxy-3-(6-methyl-[1,2,4]triazolo[1,5-a]pyrimidin-2-ylmethyl)-5,6-dihydro-pyran-2-one], 8 nM.
On to `CCc1cc(O)cc(CCC2(C3CCCC3)CC(O)=C(Cc3nc4nc(C)cc(C)n4n3)C(=O)O2)c1` (stereo not drawn) [A(186), 6-Cyclopentyl-3-(5,7-dimethyl-[1,2,4]triazolo[1,5-a]pyrimidin-2-ylmethyl)-6-[2-(3-ethyl-5-hydroxy-phenyl)-ethyl]-4-hydroxy-5,6-dihydro-pyran-2-one], for which the half-maximal inhibitory concentration (IC50) came to 40 nM.
To `CCc1cc(CCC2(C3CCCC3)CC(O)=C(Cc3nc4nc(C)cc(C)n4n3)C(=O)O2)c(O)cc1OC` (stereo not drawn) [A(187), 6-Cyclopentyl-3-(5,7-dimethyl-[1,2,4]triazolo[1,5-a]pyrimidin-2-ylmethyl)-6-[2-(5-ethyl-2-hydroxy-4-methoxy-phenyl)-ethyl]-4-hydroxy-5,6-dihydro-pyran-2-one] belongs 4 nM; to `Cc1cc(C)n2nc(CC3=C(O)CC(CCc4ccc(C5(C#N)CCCC5)c(F)c4)(C4CCCC4)OC3=O)nc2n1` (stereo not drawn) [A(188), 1-(4-{2-[2-Cyclopentyl-5-(5,7-dimethyl-[1,2,4]triazolo[1,5-a]pyrimidin-2-ylmethyl)-4-hydroxy-6-oxo-3,6-dihydro-2H-pyran-2-yl]-ethyl}-2-fluoro-phenyl)-cyclopentanecarbonitrile], 6 nM.
For `N#CC1(c2ccc(CCC3(C4CCCC4)CC(=O)CC(=O)O3)cc2F)CCCC1` (stereo not drawn) [A(189), 1-{4-[2-(2-Cyclopentyl-4,6-dioxo-tetrahydro-pyran-2-yl)-ethyl]-2-fluoro-phenyl}-cyclopentanecarbonitrile], the IC50 is 2900 nM.
To `Cc1cnc2nc(CC3=C(O)CC(CCc4ccc(C5(C#N)CCCC5)c(F)c4)(C4CCCC4)OC3=O)nn2c1` (stereo not drawn) [A(190), 1-(4-{2-[2-Cyclopentyl-4-hydroxy-5-(6-methyl-[1,2,4]triazolo[1,5-a]pyrimidin-2-ylmethyl)-6-oxo-3,6-dihydro-2H-pyran-2-yl]-ethyl}-2-fluoro-phenyl)-cyclopentanecarbonitrile] belongs 11 nM.
For `N#CC1(c2ccc(CCC3(C4CCCC4)CC(O)=C(Cc4nc5ncc(Cl)cn5n4)C(=O)O3)cc2F)CCCC1` (stereo not drawn) [A(191), 1-(4-{2-[5-(6-Chloro-[1,2,4]triazolo[1,5-a]pyrimidin-2-ylmethyl)-2-cyclopentyl-4-hydroxy-6-oxo-3,6-dihydro-2H-pyran-2-yl]-ethyl}-2-fluoro-phenyl)-cyclopentanecarbonitrile] the value was 17 nM; for `COCc1cc(CCC2(C3CCCC3)CC(O)=C(Cc3nc4nc(C)cc(C)n4n3)C(=O)O2)ccc1O` (stereo not drawn) [A(192), 6-Cyclopentyl-3-(5,7-dimethyl-[1,2,4]triazolo[1,5-a]pyrimidin-2-ylmethyl)-4-hydroxy-6-[2-(4-hydroxy-3-methoxymethyl-phenyl)-ethyl]-5,6-dihydro-pyran-2-one], 28 nM.
For `Cc1cc(C)n2nc(CC3=C(O)CC(CCc4ccc(O)c(CO)c4)(C4CCCC4)OC3=O)nc2n1` (stereo not drawn) [A(193), 6-Cyclopentyl-3-(5,7-dimethyl-[1,2,4]triazolo[1,5-a]pyrimidin-2-ylmethyl)-4-hydroxy-6-[2-(4-hydroxy-3-hydroxymethyl-phenyl)-ethyl]-5,6-dihydro-pyran-2-one] the value was 98 nM.
For `COCc1cc(CCC2(C3CCCC3)CC(=O)CC(=O)O2)ccc1O` (stereo not drawn) [A(194), 6-Cyclopentyl-6-[2-(4-hydroxy-3-methoxymethyl-phenyl)-ethyl]-dihydro-pyran-2,4-dione], the half-maximal inhibitory concentration (IC50) stood at 6900 nM.
For `O=C1CC(=O)OC(CCc2ccc(O)c(CO)c2)(C2CCCC2)C1` (stereo not drawn) [A(195), 6-Cyclopentyl-6-[2-(4-hydroxy-3-hydroxymethyl-phenyl)-ethyl]-dihydro-pyran-2,4-dione] the value was 11000 nM; for `CC(C)(C#N)c1ccc(CCC2(C3CCCC3)CC(O)=C(Cc3nc4ncc(Cl)cn4n3)C(=O)O2)cc1Cl` (stereo not drawn) [A(198), 2-(2-Chloro-4-{2-[5-(6-chloro-[1,2,4]triazolo[1,5-a]pyrimidin-2-ylmethyl)-2-cyclopentyl-4-hydroxy-6-oxo-3,6-dihydro-2H-pyran-2-yl]-ethyl}-phenyl)-2-methyl-propionitrile], 16 nM.
Take `Cc1cnc2nc(CC3=C(O)CC(CCc4ccc(C(C)(C)C#N)c(Cl)c4)(C4CCCC4)OC3=O)nn2c1` (stereo not drawn) [A(199), 2-(2-Chloro-4-{2-[2-cyclopentyl-4-hydroxy-5-(6-methyl-[1,2,4]triazolo[1,5-a]pyrimidin-2-ylmethyl)-6-oxo-3,6-dihydro-2H-pyran-2-yl]-ethyl}-phenyl)-2-methyl-propionitrile]: the 50% inhibitory concentration (IC50) worked out at 10 nM.
`CCc1cc(CCC2(C3CCCC3)CC(O)=C(Cc3nc4ncccn4n3)C(=O)O2)c(OC)cc1O` (stereo not drawn) [A(207), 6-cyclopentyl-6-[2-(5-ethyl-4-hydroxy-2-methoxyphenyl)ethyl]-4-hydroxy-3-([1,2,4]triazolo[1,5-a]pyrimidin-2-ylmethyl)-5,6-dihydro-2H-pyran-2-one]: the IC50 was found to be 4 nM.
